In patent publication US6537797B1, “Compositions and methods useful in bioremediation of polychlorinated biphenyls” (Indiana University, Advanced Research and Technology …, priority 1999, dated 2003):
“Also recorded” adds a separate entry of the source.

Tests used:
Type in all cases: cell-based
bacterial strain SK-1 = experiment: Growth substrate tests in liquid medium; conditions: initial concentration 100 parts per million, except chlorobenzoate 2-3 millimolar
Protocol: (§1) The ability of the four isolated strains to grow on selected polychlorobiphenyls as a sole carbon source was assessed.
(§2) (All tests were conducted in a liquid medium. The initial concentration of the organic substrate was 100 parts per million, except chlorobenzoate, which was 2-3 millimolar).

bacterial strain SK-4 [1] = experiment: Growth substrate tests in liquid medium; conditions: initial concentration 100 parts per million, except chlorobenzoate 2-3 millimolar
Protocol: as §1, §2

bacterial strain SK-3 [2] = experiment: Growth substrate tests in liquid medium; conditions: initial concentration 100 parts per million, except chlorobenzoate 2-3 millimolar
Protocol: as §1, §2

bacterial strain SK-2 [3] = experiment: Growth substrate tests in liquid medium; conditions: initial concentration 100 parts per million, except chlorobenzoate 2-3 millimolar
Protocol: as §1, §2

bacterial strain SK-3 [4] = experiment: Biodegradation of commercial PCB mixture Aroclor 1242 as sole carbon source; conditions: 12 days; benzoate-grown washed cells; no cosubstrate; GC
Protocol: In addition to testing the ability to use a single PCB congener as a sole carbon source (as described in Example 1), several strains of the isolated bacteria of the invention (SK-1, SK-2, SK-3 and SK-4) were tested for the ability to degrade low chlorinated PCB congeners (dichlorobiphenyls and trichlorobiphenyls) of a commercial PCB mixture in the absence of biphenyl or any other cometabolic substrate as a carbon source.
The ability of SK-1, SK-2, SK-3 and SK-4 to degrade Aroclor® 1242 was assessed using cells which were grown on benzoate and then washed. Briefly, the cells were washed by centrifuging the cells, decanting the supernatant, resuspending the cells in fresh medium, then pelleting the cells using centrifugation again and decanting the supernatant to remove residual benzoate and other carbon sources. Aroclor® 1242 was the sole carbon source provided to the cells.
The degradation of Aroclor® 1242 by SK-3 was monitored using gas is chromatography analysis and the results are depicted in FIG. 12. […] The degraded PCB congeners were identified as follows: Peak #1 was 2,5-DCBP or 2,4-DCBP; Peak #2 was 2,3′-DCBP; and Peak #3 was 2,4′-DCBP. No significant degradation of any PCB congener containing three or more chlorine atoms was observed.

bacterial strain SK-4 [5] = experiment: Characterization of SK-4: growth on and degradation of 2,2′-DCBP and 2,4′-DCBP
Protocol: The same methods for determining concentrations of analytes and for the incubation of the bacterial strain with growth substrate described herein for the previous analyses were used in the experiments to characterize SK-4. The concentration of SK-4 cells in the experiments was 1.5×10^7 cells per milliliter and the concentration of 2,2′-DCBP or 2,4′-DCBP was 100 milligrams per liter. […] Ortho-substituted congeners are common degradation products of anaerobic reductive dechlorination of more highly chlorinated PCBs (PCBs comprising more than two chlorine atoms) by anaerobic bacteria.
2,2′-DCBP was supplied at a concentration of 100 milligrams per liter dissolved in heptamethyl nonane (HMN), a non-biodegradable PCB solvent. Controls contained HMN but lacked 2,2′-DCBP.

bacterial strain SK-3 [6] = experiment: Characterization of SK-3: growth on and degradation of chlorobiphenyls and chlorobenzoates
Protocol: (§3) The concentrations of chlorobenzoates and dichlorobiphenyls were assessed after hexane extraction of bottles using gas chromatography analysis of the extracts with an electron capture detector. Chlorobenzoates were analyzed using standard columns after derivitization with pentafluorobenzyl bromide. Dichlorobiphenyls were analyzed using a DB-5 column (J&W Scientific, Fulsom, Calif.).
The results from this experiment are depicted in FIG. 5.
The growth of SK-3 on 4-chlorobiphenyl (4-CB) was compared with growth on its non-chlorinated form, biphenyl. […] The results from this experiment are depicted in FIG. 6. The concentration of chloride ion was determined using ion chromatography on a standard Dionex ion chromatography column. The concentration of 4-CB was assessed after hexane extraction of bottles by analyzing the hexane extracts using gas chromatography on a DB-5 column (J&W Scientific, Fulsom, Calif.) and an electron capture detector.
The growth of SK-3 on chlorobenzoates was assessed. […] The results from this experiment are depicted in FIG. 7.
The degradation of three different monochlorobiphenyls, (2-CB, 3-CB, and 4-CB) by SK-3 was assessed at 23° C. under aerobic conditions on a shaker table. After incubation of SK-3 with the selected monochlorobiphenyl for 88 hours, the concentrations of chloride and the corresponding chlorobenzoic acids (CBA) was assessed as described herein. The results from this experiment are depicted in FIG. 8.
The growth of SK-3 on dichloro-biphenyls was also assessed. […] The results of this experiment are depicted in FIG. 9.

bacterial strain SK-2 [7] = experiment: Growth of SK-2 on 3,4-DCBP as sole carbon source and its degradation
Protocol: Growth of bacterial strains SK-1 and SK-2 on 2,3-DCBP and 3,4-DCBP, respectively, as a sole carbon source was determined using direct counting and an acridine orange staining method. This method involves filtering 0.1 milliliters of culture through a 0.45 micron filter, staining the cells on the filter using a 0.01% acridine orange solution for 3 to 5 minutes, and counting cells on the filter using an epifluorescent microscope at a 1000′ magnification. SK-1+ contained 2,3-dichlorobiphenyl; SK-2+ contained 3,4-dichlorobiphenyl. Control bottles in each case were identical to experimental bottles in that they were inoculated with the cultures but they lacked the appropriate congener. The initial concentration of PCBs was 500 ppm (w/v). The cell numbers of the two isolates increased by 1.5 orders of magnitude in the presence of the DCBPs used as a growth substrate. The degradation of 2,3-DCBP by SK-1 and production of 2,3-dichlorobenzoate is depicted in FIG. 3. The degradation of 3,4-DCBP by SK-2 and production of 3,4-dichlorobenzoate is depicted in FIG. 4.
as §3
The data shown in FIGS. 2, 3 and 4 illustrates the nearly complete disappearance of both 2,3-DCBP (0.38 mM initial concentration, FIG. 3) and 3,4-DCBP (0.3 mM initial concentration, FIG. 4) within 10 days of incubation. Duplicate bottles were used and error bars of the pictures represent a standard deviation. Controls contained DCBPs but lacked inoculum. DCBPs were supplied in the bottles using the non-biodegradable carrier heptamethylnonane (HMN).

[8] = 1.5×10^7 cells per milliliter, substrate in heptamethyl nonane

SMILES: Clc1cccc(-c2ccccc2Cl)c1 [2,3′-DCBP]
- Growth of SK-1 on the substrate as sole carbon source (bacterial strain SK-1): No
- Growth of SK-4 on the substrate as sole carbon source (bacterial strain SK-4 [1]): No
- Growth of SK-3 on the substrate as sole carbon source (bacterial strain SK-3 [2]): No
- Growth of SK-2 on the substrate as sole carbon source (bacterial strain SK-2 [3]): No
- Degradation of PCB congeners of Aroclor 1242 by SK-3 (bacterial strain SK-3 [4]): degraded

SMILES: Clc1ccc(-c2ccccc2Cl)cc1 [2,4′-DCBP, 2,4′-dichlorobiphenyl]
- Growth of SK-4 on the substrate as sole carbon source (bacterial strain SK-4 [5]; 1.5×10^7 cells per milliliter, 100 milligrams per liter): growth; also recorded: ability to grow rapidly
- Chloride release on degradation by SK-4 (bacterial strain SK-4 [5]; [8]): production of chloride
- Chlorobenzoate production on degradation by SK-4 (bacterial strain SK-4 [5]; [8]): stoichiometric accumulation of a chlorobenzoate
- Doubling time of SK-4 grown on the substrate (bacterial strain SK-4 [5]; concentration 0.42 mM, sole carbon source): ~17 h
- Growth of SK-1 on the substrate as sole carbon source (bacterial strain SK-1): Yes
- Growth of SK-4 on the substrate as sole carbon source (bacterial strain SK-4 [1]): exhibited growth and Yes
- Growth of SK-3 on the substrate as sole carbon source (bacterial strain SK-3 [2]): exhibited growth and Yes
- Growth of SK-2 on the substrate as sole carbon source (bacterial strain SK-2 [3]): Unlikely
- Growth of SK-3 on the substrate as sole carbon source (bacterial strain SK-3 [6]): able to grow
- Doubling time of SK-3 grown on the substrate (bacterial strain SK-3 [6]; concentration 0.27 mM, sole carbon source): approximately 43 hours
- Extent of chloride production by SK-3 (bacterial strain SK-3 [6]; growth on 0.27 mM 2,4′-DCBP): 0.49 mM
- Production of chlorobenzoates (2-CBA, 4-CBA) during growth of SK-3 (bacterial strain SK-3 [6]; growth on 2,4′-DCBP): not detected
- Degradation of PCB congeners of Aroclor 1242 by SK-3 (bacterial strain SK-3 [4]): degraded

SMILES: Clc1ccc(-c2ccccc2)cc1Cl [3,4-DCBP, 3,4-dichlorobiphenyl]
- Time to nearly complete disappearance (bacterial strain SK-2 [7]; SK-2, 0.3 mM initial concentration, supplied in heptamethylnonane): ≤ 10 days
- Increase of cell numbers in the presence of the DCBP as growth substrate (bacterial strain SK-2 [7]; SK-2, initial concentration 500 ppm (w/v), acridine orange direct counting): 1.5 orders of magnitude
- Growth of SK-1 on the substrate as sole carbon source (bacterial strain SK-1): No
- Growth of SK-4 on the substrate as sole carbon source (bacterial strain SK-4 [1]): No
- Growth of SK-3 on the substrate as sole carbon source (bacterial strain SK-3 [2]): No
- Growth of SK-2 on the substrate as sole carbon source (bacterial strain SK-2 [3]): exhibited growth and Yes

SMILES: O=C(O)c1ccc(Cl)c(Cl)c1 [3,4-dichlorobenzoate]
- Time at which concentration of chlorobenzoate produced from 3,4-DCBP by SK-2 reached a maximum, then decreased (bacterial strain SK-2 [7]; 0.3 mM 3,4-DCBP initial concentration): 90 h
- Growth of SK-4 on the substrate as sole carbon source (bacterial strain SK-4 [1]): No
- Growth of SK-3 on the substrate as sole carbon source (bacterial strain SK-3 [2]): No
